{
  "source": "ChEMBL document CHEMBL3885861",
  "about": "“Open TG-GATES”",
  "species": "Rattus norvegicus",
  "assay": "Open TG-GATES - Regimen: Daily Repeat",
  "format": "toxicity, organism-based, Sprague-Dawley",
  "parameters": "regimen Daily Repeat, gender Male, age 6 weeks",
  "conditions": "in vivo, po, 0 mg/kg, route gavage, dose level Control; for APTT / Bas / Eos / Fbg / Hb / Ht / Lym / MCH / MCHC / MCV / Mono / Neu / PT / Plat / RBC / Ret / WBC: tissue Blood",
  "key": {"[1]": {"conditions": "72 h, tissue Kidney, time 3 day"}, "[2]": {"conditions": "72 h, tissue Plasma, time 3 day"}},
  "data": [
    {"smiles": "NC(=O)N/N=C/c1ccc([N+](=O)[O-])o1", "note": "[NITROFURAZONE]", "values": [
      {"measurement": "TERMINAL_BW", "setting": "72 h, time 3 day", "result": 218.5, "unit": "g"},
      {"measurement": "APTT", "setting": "72 h, time 3 day", "result": 14.6, "unit": "s"},
      {"measurement": "Bas", "setting": "72 h, time 3 day", "result": 0, "unit": "%"},
      {"measurement": "Eos", "setting": "72 h, time 3 day", "result": 0.6, "unit": "%"},
      {"measurement": "Fbg", "setting": "72 h, time 3 day", "result": 279.4, "unit": "mg/dL"},
      {"measurement": "Hb", "setting": "72 h, time 3 day", "result": 12.9, "unit": "g/dL"},
      {"measurement": "Ht", "setting": "72 h, time 3 day", "result": 39.6, "unit": "%"},
      {"measurement": "Lym", "setting": "72 h, time 3 day", "result": 81, "unit": "%"},
      {"measurement": "MCH", "setting": "72 h, time 3 day", "result": 21, "unit": "pg"},
      {"measurement": "MCHC", "setting": "72 h, time 3 day", "result": 32.6, "unit": "%"},
      {"measurement": "MCV", "setting": "72 h, time 3 day", "result": 64.4, "unit": "fL"},
      {"measurement": "Mono", "setting": "72 h, time 3 day", "result": 2.6, "unit": "%"},
      {"measurement": "Neu", "setting": "72 h, time 3 day", "result": 15, "unit": "%"},
      {"measurement": "PT", "setting": "72 h, time 3 day", "result": 14.5, "unit": "s"},
      {"measurement": "Plat", "setting": "72 h, time 3 day", "result": 111.2, "unit": "x10_4/uL"},
      {"measurement": "RBC", "setting": "72 h, time 3 day", "result": 614.6, "unit": "x10_4/ul"},
      {"measurement": "Ret", "setting": "72 h, time 3 day", "result": 8.9, "unit": "%"},
      {"measurement": "WBC", "setting": "72 h, time 3 day", "result": 76.9, "unit": "x10_2/uL"},
      {"measurement": "KIDNEY_L", "setting": "[1]", "result": 0.9, "unit": "g"},
      {"measurement": "KIDNEY_R", "setting": "[1]", "result": 0.9, "unit": "g"},
      {"measurement": "KIDNEY_TOTAL", "setting": "[1]", "result": 1.7, "unit": "g"},
      {"measurement": "LIVER", "setting": "72 h, tissue Liver, time 3 day", "result": 9.8, "unit": "g"},
      {"measurement": "A/G", "setting": "[2]", "result": 0.9},
      {"measurement": "ALP", "setting": "[2]", "result": 2147, "unit": "IU/L"},
      {"measurement": "ALT", "setting": "[2]", "result": 51.2, "unit": "IU/L"},
      {"measurement": "AST", "setting": "[2]", "result": 78.2, "unit": "IU/L"},
      {"measurement": "BUN", "setting": "[2]", "result": 16, "unit": "mg/dL"},
      {"measurement": "CRE", "setting": "[2]", "result": 0.2, "unit": "mg/dL"},
      {"measurement": "Ca", "setting": "[2]", "result": 11.4, "unit": "mg/dL"},
      {"measurement": "Cl", "setting": "[2]", "result": 106.2, "unit": "meq/L"},
      {"measurement": "DBIL", "setting": "[2]", "result": 0.016, "unit": "mg/dL"},
      {"measurement": "GLC", "setting": "[2]", "result": 178.2, "unit": "mg/dL"},
      {"measurement": "IP", "setting": "[2]", "result": 7.9, "unit": "mg/dL"},
      {"measurement": "K", "setting": "[2]", "result": 4.4, "unit": "meq/L"},
      {"measurement": "LDH", "setting": "[2]", "result": 79, "unit": "IU/L"},
      {"measurement": "Na", "setting": "[2]", "result": 141.6, "unit": "meq/L"},
      {"measurement": "PL", "setting": "[2]", "result": 161.2, "unit": "mg/dL"},
      {"measurement": "RALB", "setting": "[2]", "result": 2.6, "unit": "g/dL"},
      {"measurement": "TBIL", "setting": "[2]", "result": 0.046, "unit": "mg/dL"},
      {"measurement": "TC", "setting": "[2]", "result": 92.4, "unit": "mg/dL"},
      {"measurement": "TG", "setting": "[2]", "result": 100.8, "unit": "mg/dL"},
      {"measurement": "TP", "setting": "[2]", "result": 5.6, "unit": "g/dL"},
      {"measurement": "gamma-GTP", "setting": "[2]", "result": 1, "unit": "IU/L"},
      {"measurement": "TERMINAL_BW", "setting": "[…], time 7 day", "result": 259.3, "unit": "g"},
      {"measurement": "TERMINAL_BW", "setting": "[…], time 14 day", "result": 324.7, "unit": "g"},
      {"measurement": "TERMINAL_BW", "setting": "[…], time 28 day", "result": 406, "unit": "g"},
      {"measurement": "APTT", "setting": "[…], time 7 day", "result": 16.9, "unit": "s"},
      {"measurement": "Bas", "setting": "[…], time 7 day", "result": 0.2, "unit": "%"},
      {"measurement": "Eos", "setting": "[…], time 7 day", "result": 1, "unit": "%"},
      {"measurement": "Fbg", "setting": "[…], time 7 day", "result": 268, "unit": "mg/dL"},
      {"measurement": "Hb", "setting": "[…], time 7 day", "result": 13.4, "unit": "g/dL"},
      {"measurement": "Ht", "setting": "[…], time 7 day", "result": 39.9, "unit": "%"},
      {"measurement": "Lym", "setting": "[…], time 7 day", "result": 75, "unit": "%"},
      {"measurement": "MCH", "setting": "[…], time 7 day", "result": 21.1, "unit": "pg"},
      {"measurement": "MCHC", "setting": "[…], time 7 day", "result": 33.5, "unit": "%"},
      {"measurement": "MCV", "setting": "[…], time 7 day", "result": 62.8, "unit": "fL"},
      {"measurement": "Mono", "setting": "[…], time 7 day", "result": 3.2, "unit": "%"},
      {"measurement": "Neu", "setting": "[…], time 7 day", "result": 20.2, "unit": "%"},
      {"measurement": "PT", "setting": "[…], time 7 day", "result": 14.4, "unit": "s"},
      {"measurement": "Plat", "setting": "[…], time 7 day", "result": 112.6, "unit": "x10_4/uL"},
      {"measurement": "RBC", "setting": "[…], time 7 day", "result": 636.4, "unit": "x10_4/ul"},
      {"measurement": "Ret", "setting": "[…], time 7 day", "result": 7, "unit": "%"},
      {"measurement": "WBC", "setting": "[…], time 7 day", "result": 96.1, "unit": "x10_2/uL"},
      {"measurement": "APTT", "setting": "[…], time 14 day", "result": 14.3, "unit": "s"},
      {"measurement": "Bas", "setting": "[…], time 14 day", "result": 0.2, "unit": "%"},
      {"measurement": "Eos", "setting": "[…], time 14 day", "result": 0.8, "unit": "%"},
      {"measurement": "Fbg", "setting": "[…], time 14 day", "result": 303, "unit": "mg/dL"},
      {"measurement": "Hb", "setting": "[…], time 14 day", "result": 13.6, "unit": "g/dL"},
      {"measurement": "Ht", "setting": "[…], time 14 day", "result": 41.4, "unit": "%"},
      {"measurement": "Lym", "setting": "[…], time 14 day", "result": 77.8, "unit": "%"},
      {"measurement": "MCH", "setting": "[…], time 14 day", "result": 20.7, "unit": "pg"},
      {"measurement": "MCHC", "setting": "[…], time 14 day", "result": 32.8, "unit": "%"},
      {"measurement": "MCV", "setting": "[…], time 14 day", "result": 63.2, "unit": "fL"},
      {"measurement": "Mono", "setting": "[…], time 14 day", "result": 2, "unit": "%"},
      {"measurement": "Neu", "setting": "[…], time 14 day", "result": 18.2, "unit": "%"},
      {"measurement": "PT", "setting": "[…], time 14 day", "result": 14.4, "unit": "s"},
      {"measurement": "Plat", "setting": "[…], time 14 day", "result": 121.6, "unit": "x10_4/uL"},
      {"measurement": "RBC", "setting": "[…], time 14 day", "result": 657.2, "unit": "x10_4/ul"},
      {"measurement": "Ret", "setting": "[…], time 14 day", "result": 5.7, "unit": "%"},
      {"measurement": "WBC", "setting": "[…], time 14 day", "result": 91.3, "unit": "x10_2/uL"},
      {"measurement": "APTT", "setting": "[…], time 28 day", "result": 16.2, "unit": "s"},
      {"measurement": "Bas", "setting": "[…], time 28 day", "result": 0, "unit": "%"},
      {"measurement": "Eos", "setting": "[…], time 28 day", "result": 1.2, "unit": "%"},
      {"measurement": "Fbg", "setting": "[…], time 28 day", "result": 275.6, "unit": "mg/dL"},
      {"measurement": "Hb", "setting": "[…], time 28 day", "result": 15, "unit": "g/dL"},
      {"measurement": "Ht", "setting": "[…], time 28 day", "result": 44.5, "unit": "%"}
    ]}
  ]
}
